Measured values published in patent US20230295157A1, “3-(1H-IMIDAZOL-2-YL)-2,3,8,8A-TETRAHYDROINDOLIZIN-5(1H)-ONE DERIVATIVES USEFUL AS FACTOR XIA INHIBITORS” (JANSSEN PHARMACEUTICA NV, priority 2020, published 2023).
Where two headings read alike, the source gives them in different places.

Key:
[1] = target: human plasma kallikrein (Homo sapiens (Human), UniProt P03952); test: Kallikrein inhibition assay (FLINT) utilizing a quenched AMC peptide substrate; type: biochemical; conditions: 30 min preincubation, read-out: Kallikrein Kin Inh IC50
human plasma kallikrein, sequence (P03952 391-638): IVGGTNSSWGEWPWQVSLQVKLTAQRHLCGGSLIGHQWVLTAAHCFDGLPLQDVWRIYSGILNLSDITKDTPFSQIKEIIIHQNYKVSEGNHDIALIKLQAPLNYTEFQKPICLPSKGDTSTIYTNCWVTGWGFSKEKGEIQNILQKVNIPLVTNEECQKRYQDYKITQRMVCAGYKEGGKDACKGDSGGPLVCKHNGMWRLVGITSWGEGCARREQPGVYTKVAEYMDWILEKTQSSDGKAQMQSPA
human plasma kallikrein, sequence (P03952 20-390 partner): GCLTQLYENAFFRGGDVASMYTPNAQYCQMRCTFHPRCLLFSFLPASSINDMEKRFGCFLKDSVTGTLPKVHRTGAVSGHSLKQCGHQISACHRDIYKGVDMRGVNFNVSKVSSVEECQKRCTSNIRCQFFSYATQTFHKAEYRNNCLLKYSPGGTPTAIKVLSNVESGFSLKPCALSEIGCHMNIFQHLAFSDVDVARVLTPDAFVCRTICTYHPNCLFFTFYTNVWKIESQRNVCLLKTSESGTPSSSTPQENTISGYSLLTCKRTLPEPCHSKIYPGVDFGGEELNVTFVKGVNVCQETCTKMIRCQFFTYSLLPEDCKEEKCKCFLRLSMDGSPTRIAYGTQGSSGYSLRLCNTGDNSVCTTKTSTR
Summary of the method: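 Enzyme (2 nM final) pre-incubated 30 min at room temperature with compound (11-point, 3-fold, top 1 μM, 2% DMSO), then 50 μM Z-Gly-Pro-Arg-AMC added in Tris pH 7.5 buffer. Kinetic fluorescence 340/440 nm every 5 min over 30 min; IC50 from 4-parameter logistic fit.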

[2] = target: Factor XIa (Homo sapiens (Human), UniProt P03951); test: Factor XIa inhibition assay (FLINT) utilizing a fluorophore-quencher pair peptide substrate; type: biochemical; conditions: 30 min preincubation, read-out: FXIa Kin Inh IC50
Factor XIa, sequence (P03951 388-625): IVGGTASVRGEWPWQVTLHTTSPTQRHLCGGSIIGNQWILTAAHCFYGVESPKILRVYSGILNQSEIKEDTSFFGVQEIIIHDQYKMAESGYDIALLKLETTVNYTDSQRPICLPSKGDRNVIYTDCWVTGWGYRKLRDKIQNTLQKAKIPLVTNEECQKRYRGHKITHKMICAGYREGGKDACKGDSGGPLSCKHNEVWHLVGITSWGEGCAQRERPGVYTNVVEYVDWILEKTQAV
Factor XIa, sequence (P03951 19-387 partner): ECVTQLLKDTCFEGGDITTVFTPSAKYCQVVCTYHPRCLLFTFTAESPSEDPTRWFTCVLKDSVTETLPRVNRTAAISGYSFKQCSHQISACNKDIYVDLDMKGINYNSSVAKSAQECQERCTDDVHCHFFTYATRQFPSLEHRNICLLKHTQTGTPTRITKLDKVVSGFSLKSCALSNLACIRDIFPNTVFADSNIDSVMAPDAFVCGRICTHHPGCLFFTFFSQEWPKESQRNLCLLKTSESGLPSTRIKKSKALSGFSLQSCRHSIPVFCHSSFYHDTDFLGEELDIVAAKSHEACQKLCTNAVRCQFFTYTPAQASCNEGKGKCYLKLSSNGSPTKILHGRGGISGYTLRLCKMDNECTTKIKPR
Summary of the method: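 FXIa ([…]) preincubated 30 min with compound (11-point 3-fold dilution, top 100 nM, 2% DMSO), then 15 μM quenched FXI Arg146-based peptide added; Tris pH 7.5, CaCl2, BSA, CHAPS. Fluorescence 485/520 nm read kinetically every 5 min over 30 min at RT; IC50 by 4-parameter fit.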

[3] = kinetic reads over 30 min, Z-Gly-Pro-Arg-AMC substrate 50 μM
[4] = kinetic reads over 30 min, 5Fam-KLTRAETV-K5Tamra substrate 15 μM
[5] = kinetic reads over 30 min, 5Fam-[…]-K5Tamra substrate 15 μM

| SMILES | IC50 [1, 3] | IC50 [2, 4] | IC50 [2, 5] | IC50 ([1]; μM, kinetic reads) | IC50 ([2]; μM, kinetic reads) |
| --- | --- | --- | --- | --- | --- |
| O=C1C=C(c2c(-n3cnnn3)ccc(Cl)c2F)C[C@H]2CC[C@@H](c3ncc(-c4ccnc(OC[C@@H]5COCCO5)c4F)[nH]3)N12 (single isomer, unassigned) [Example 157, (3*S,8aR)-3-(5-(2-(((S)-1,4-dioxan-2-yl)methoxy)-3-fluoropyridin-4-yl)-1H-imidazol-2-yl)-7-(3-chloro-2-fluoro-6-(1H-tetrazol-1-yl)phenyl)-2,3,8,8a-tetrahydroindolizin-5(1H)-one] | 0.0068 µM | 0.002 µM |  |  |  |
| COCCNc1nccc(-c2cnc([C@@H]3CCC4CC(c5c(-n6cnnn6)ccc(Cl)c5F)=CC(=O)N43)[nH]2)c1F (stereo partly drawn) [Example 161, (3S)-7-(3-chloro-2-fluoro-6-(1H-tetrazol-1-yl)phenyl)-3-(5-(3-fluoro-2-((2-methoxyethyl)amino)pyridin-4-yl)-1H-imidazol-2-yl)-2,3,8,8a-tetrahydroindolizin-5(1H)-one] | 0.0019 µM | 0.0005 µM |  |  |  |
| O=C1C=C(c2c(-n3cnnn3)ccc(Cl)c2F)C[C@@H]2CC[C@@H](c3ncc(-c4cc[n+]([O-])cc4)[nH]3)N12 (relative stereo) [Example 321, 4-(2-((3S,8aS)-7-(3-Chloro-2-fluoro-6-(1H-tetrazol-1-yl)phenyl)-5-oxo-1,2,3,5,8,8a-hexahydroindolizin-3-yl)-1H-imidazol-5-yl)pyridine 1-oxide] | 0.342 µM |  | 0.0787 µM |  |  |
| NC(=O)c1cc(-c2cnc([C@@H]3CC[C@@H]4CC(c5c(-n6cnnn6)ccc(Cl)c5F)=CC(=O)N43)[nH]2)ccc1F [Example 233, 5-(2-((3S,8aR)-7-(3-chloro-2-fluoro-6-(1H-tetrazol-1-yl)phenyl)-5-oxo-1,2,3,5,8,8a-hexahydroindolizin-3-yl)-1H-imidazol-5-yl)-2-fluorobenzamide] | 0.0067 µM | 0.0242 µM |  |  |  |
| CC(C)C(=O)Nc1ccccc1-c1c[nH]c([C@@H]2CCC3CC(c4c(-n5cnnn5)ccc(Cl)c4F)=CC(=O)N32)n1 (stereo partly drawn) [Example 329, N-(2-(2-((3S)-7-(3-Chloro-2-fluoro-6-(1H-tetrazol-1-yl)phenyl)-5-oxo-1,2,3,5,8,8a-hexahydroindolizin-3-yl)-1H-imidazol-4-yl)phenyl)isobutyramide] | 0.0013 µM | 0.0005 µM |  |  |  |
| [2H]c1cc(-c2[nH]c([C@@H]3CC[C@@H]4CC(c5c(-n6cnnn6)ccc(Cl)c5F)=CC(=O)N43)nc2[2H])c(F)nc1N [Example 145, (3S,8aR)-3-[5-(6-amino-5-deuterio-2-fluoro-3-pyridyl)-4-deuterio-1H-imidazol-2-yl]-7-[3-chloro-2-fluoro-6-(tetrazol-1-yl)phenyl]-2,3,8,8a-tetrahydro-1H-indolizin-5-one] | 0.0077 µM | 0.0006 µM |  |  |  |
| [2H]c1c(NC)nc(F)c(-c2cnc([C@H]3CC[C@@H]4CC(c5c(-n6cnnn6)ccc(Cl)c5F)=CC(=O)N43)[nH]2)c1[2H] (relative stereo) [Example 133, (3R*,8aR)-7-(3-chloro-2-fluoro-6-(1H-tetrazol-1-yl)phenyl)-3-(5-(2-fluoro-6-(methylamino)pyridin-3-yl-4,5-d2)-1H-imidazol-2-yl)-2,3,8,8a-tetrahydroindolizin-5(1H)-one] | 0.0075 µM |  | 0.0007 µM |  |  |
| O=C1CCc2cc(-c3cnc([C@@H]4CC[C@@H]5CC(c6c(-n7cnnn7)ccc(Cl)c6F)=CC(=O)N54)[nH]3)ccc2N1 (relative stereo) [Example 281, 6-(2-((3S,8aR)-7-(3-Chloro-2-fluoro-6-(1H-tetrazol-1-yl)phenyl)-5-oxo-1,2,3,5,8,8a-hexahydroindolizin-3-yl)-1H-imidazol-5-yl)-3,4-dihydroquinolin-2(1H)-one] | 0.0008 µM |  | 0.0003 µM |  |  |
| O=C1C=C(c2c(-n3cnnn3)ccc(Cl)c2F)C[C@H]2CC[C@H](c3nc(F)c(-c4ccnc(C5(O)CC5)c4)[nH]3)N12 [Example 179, (3R,8aR)-7-(3-chloro-2-fluoro-6-(1H-tetrazol-1-yl)phenyl)-3-(4-fluoro-5-(2-(1-hydroxycyclopropyl)pyridin-4-yl)-1H-imidazol-2-yl)-2,3,8,8a-tetrahydroindolizin-5(1H)-one] | 0.0014 µM | 0.0005 µM |  |  |  |
| O=C1CCc2cc(-c3cnc([C@@H]4CC[C@H]5CC(c6c(-n7cnnn7)ccc(Cl)c6F)=CC(=O)N54)[nH]3)ccc2N1 (relative stereo) [Example 280, 6-(2-((3S,8aS)-7-(3-Chloro-2-fluoro-6-(1H-tetrazol-1-yl)phenyl)-5-oxo-1,2,3,5,8,8a-hexahydroindolizin-3-yl)-1H-imidazol-5-yl)-3,4-dihydroquinolin-2(1H)-one] | 0.0012 µM |  | 0.0006 µM |  |  |
| CN(C)c1ccc(-c2cnc([C@@H]3CCC4CC(c5c(-n6cnnn6)ccc(Cl)c5F)=CC(=O)N43)[nH]2)c(F)n1 (stereo partly drawn) [Example 315, (3S)-7-(3-Chloro-2-fluoro-6-(1H-tetrazol-1-yl)phenyl)-3-(5-(6-(dimethylamino)-2-fluoropyridin-3-yl)-1H-imidazol-2-yl)-2,3,8,8a-tetrahydroindolizin-5(1H)-one] | 0.0348 µM | 0.0311 µM |  |  |  |
| Cn1nncc1-c1c[nH]c([C@@H]2CCC3CC(c4c(-n5cnnn5)ccc(Cl)c4F)=CC(=O)N32)n1 (stereo partly drawn) [Example 339, (3S)-7-(3-Chloro-2-fluoro-6-(1H-tetrazol-1-yl)phenyl)-3-(4-(1-methyl-1H-1,2,3-triazol-5-yl)-1H-imidazol-2-yl)-2,3,8,8a-tetrahydroindolizin-5(1H)-one] |  | 0.134 µM |  | 2.05 µM |  |
| O=C1Cc2cc(-c3cnc([C@@H]4CCC5CC(c6c(-n7cnnn7)ccc(Cl)c6F)=CC(=O)N54)[nH]3)ccc2N1 (stereo partly drawn) [Example 314, 5-(2-((3S)-7-(3-Chloro-2-fluoro-6-(1H-tetrazol-1-yl)phenyl)-5-oxo-1,2,3,5,8,8a-hexahydroindolizin-3-yl)-1H-imidazol-5-yl)indolin-2-one] | 0.0032 µM | 0.001 µM |  |  |  |
| O=C1C=C(c2cc(Cl)ccc2-n2cnnn2)C[C@H]2CC[C@@H](c3ncc(-c4ccnc(NC56CC(C5)C6)c4F)[nH]3)N12 [Example 96, (3S,8aR)-3-(5-(2-(Bicyclo[1.1.1]pentan-1-ylamino)-3-fluoropyridin-4-yl)-1H-imidazol-2-yl)-7-(5-chloro-2-(1H-tetrazol-1-yl)phenyl)-2,3,8,8a-tetrahydroindolizin-5(1H)-one] | 0.0026 µM | 0.0054 µM |  |  |  |
| O=C(Nc1ccncc1-c1c[nH]c([C@@H]2CCC3CC(c4c(-n5cnnn5)ccc(Cl)c4F)=CC(=O)N32)n1)C1CC1 (stereo partly drawn) [Example 252, N-[3-[2-[(3S)-7-[3-Chloro-2-fluoro-6-(tetrazol-1-yl)phenyl]-5-oxo-2,3,8,8a-tetrahydro-1H-indolizin-3-yl]-1H-imidazol-4-yl]-4-pyridyl]cyclopropanecarboxamide] | 0.0045 µM | 0.0006 µM |  |  |  |
| Nc1ccc(-c2cnc([C@H]3CC[C@@H]4CC(c5c(-n6cnnn6)ccc(Cl)c5F)=CC(=O)N43)[nH]2)c(F)n1 [Example 356, (3R,8aR)-3-(5-(6-Amino-2-fluoropyridin-3-yl)-1H-imidazol-2-yl)-7-(3-chloro-2-fluoro-6-(1H-tetrazol-1-yl)phenyl)-2,3,8,8a-tetrahydroindolizin-5(1H)-one] |  |  |  | > 10 µM | 7.4 µM |
| O=C1C=C(c2c(-n3cnnn3)ccc(Cl)c2F)C[C@H]2CC[C@H](c3ncc(-c4ccnc(C5(O)CC5)c4F)[nH]3)N12 (single isomer, unassigned) [Example 162, (3*R,8aR)-7-(3-chloro-2-fluoro-6-(1H-tetrazol-1-yl)phenyl)-3-(5-(3-fluoro-2-(1-hydroxycyclopropyl)pyridin-4-yl)-1H-imidazol-2-yl)-2,3,8,8a-tetrahydroindolizin-5(1H)-one] | 0.0306 µM | 0.0042 µM |  |  |  |
| [2H]c1c(N)nc(F)c(-c2cnc([C@@H]3CC[C@@H]4CC(c5c(-n6cnnn6)ccc(Cl)c5F)=CC(=O)N43)[nH]2)c1[2H] [Example 151, (3S,8aR)-3-[5-(6-amino-4,5-dideuterio-2-fluoro-3-pyridyl)-1H-imidazol-2-yl]-7-[3-chloro-2-fluoro-6-(tetrazol-1-yl)phenyl]-2,3,8,8a-tetrahydro-1H-indolizin-5-one] | 0.0089 µM | 0.0006 µM |  |  |  |
| NC(=O)c1ccc(-c2cnc([C@@H]3CC[C@H]4CC(c5c(-n6cc(C(F)(F)F)nn6)ccc(Cl)c5F)=CC(=O)N43)[nH]2)cn1 (single isomer, unassigned) [Example 213] | 0.197 µM | 0.0394 µM |  |  |  |
| COCc1nccc(-c2c[nH]c([C@@H]3CCC4CC(c5c(-n6cnnn6)ccc(Cl)c5F)=CC(=O)N43)n2)c1F (stereo partly drawn) [Example 177, (3S)-7-(3-chloro-2-fluoro-6-(1H-tetrazol-1-yl)phenyl)-3-(4-(3-fluoro-2-(methoxymethyl)pyridin-4-yl)-1H-imidazol-2-yl)-2,3,8,8a-tetrahydroindolizin-5(1H)-one] | 0.0216 µM | 0.0031 µM |  |  |  |
| O=C1C=C(c2c(-n3cnnn3)ccc(Cl)c2F)C[C@H]2CC[C@@H](c3ncc(-c4c[nH]c5ncncc45)[nH]3)N12 [Example 379, (3S,8aR)-3-(5-(7H-pyrrolo[2,3-d]pyrimidin-5-yl)-1H-imidazol-2-yl)-7-(3-chloro-2-fluoro-6-(1H-tetrazol-1-yl)phenyl)-2,3,8,8a-tetrahydroindolizin-5(1H)-one] | 0.0022 µM | 0.0006 µM |  |  |  |
